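Briefly, cells in 96-well plates were exposed to five compound concentrations for 48 h, and endpoints were estimated by linear interpolation. At the GI50, growth is halved.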 Active and inactive are the calls of the source. Rule as the data show it: active = GI50 up to about 1.1 µM and inactive = higher.
Key:
Assay in all cases: growth of human tumour cells (NCI), 48 h
OVCAR-3 = system: OVCAR-3
TK-10 = system: TK-10
OVCAR-5 = system: OVCAR-5
SW-620 = system: SW-620
SK-MEL-5 = system: SK-MEL-5
SF-268 = system: SF-268
RPMI-8226 = system: RPMI-8226
M14 = system: M14
UACC-62 = system: UACC-62
HCT-116 = system: HCT-116
NCI-H522 = system: NCI-H522
IGROV-1 = system: IGROV-1
HOP-18 = system: HOP-18
OVCAR-4 = system: OVCAR-4
HCT-15 = system: HCT-15
SNB-75 = system: SNB-75
EKVX = system: EKVX
MOLT-4 = system: MOLT-4
K562 = system: K562
UO-31 = system: UO-31
SF-295 = system: SF-295
HOP-62 = system: HOP-62
SF-539 = system: SF-539
DMS-273 = system: DMS-273
M19-MEL = system: M19-MEL
SNB-78 = system: SNB-78
HL-60 = system: HL-60
NCI-H460 = system: NCI-H460
OVCAR-8 = system: OVCAR-8
CAKI-1 = system: CAKI-1
KM-20L2 = system: KM-20L2
LOX IMVI = system: LOX IMVI
COLO 205 = system: COLO 205
A549 = system: A549
Malme-3M = system: Malme-3M
DLD-1 = system: DLD-1
SR = system: SR
KM12 = system: KM12
CCRF-CEM = system: CCRF-CEM
LXFL 529 = system: LXFL 529
A498 = system: A498
U-251 = system: U-251
XF498 = system: XF498
SK-OV-3 = system: SK-OV-3
SK-MEL-2 = system: SK-MEL-2
HCC 2998 = system: HCC 2998
786-0 = system: 786-0
ACHN = system: ACHN
HT-29 = system: HT-29
HOP-92 = system: HOP-92
SNB-19 = system: SNB-19
SK-MEL-28 = system: SK-MEL-28
UACC-257 = system: UACC-257
RXF 393 = system: RXF 393
SN12C = system: SN12C
DMS-114 = system: DMS-114
NCI-H23 = system: NCI-H23
NCI-H226 = system: NCI-H226

COc1ccc(CN(O)C2C(CO)OC(n3cc(I)c(=O)[nH]c3=O)C2O)cc1 (stereo not drawn)
GI50 (OVCAR-3): > 100 µM (inactive)
GI50 (TK-10): > 100 µM (inactive)
GI50 (OVCAR-5): > 100 µM (inactive)
GI50 (SW-620): > 100 µM (inactive)
GI50 (SK-MEL-5): > 100 µM (inactive)
GI50 (SF-268): > 100 µM (inactive)
GI50 (RPMI-8226): > 100 µM (inactive)
GI50 (M14): > 100 µM (inactive)
GI50 (UACC-62): > 100 µM (inactive)
GI50 (HCT-116): > 100 µM (inactive)
GI50 (NCI-H522): > 100 µM (inactive)
GI50 (IGROV-1): > 100 µM (inactive)
GI50 (HOP-18): > 100 µM (inactive)
GI50 (OVCAR-4): > 100 µM (inactive)
GI50 (HCT-15): > 100 µM
GI50 (SNB-75): > 100 µM (inactive)
GI50 (EKVX): > 100 µM (inactive)
GI50 (MOLT-4): > 100 µM (inactive)
GI50 (K562): > 100 µM (inactive)
GI50 (UO-31): > 100 µM (inactive)
GI50 (SF-295): > 100 µM (inactive)
GI50 (HOP-62): > 100 µM (inactive)
GI50 (SF-539): > 100 µM (inactive)
GI50 (DMS-273): > 100 µM (inactive)
GI50 (M19-MEL): > 100 µM (inactive)
GI50 (SNB-78): > 100 µM (inactive)
GI50 (HL-60): > 100 µM (inactive)
GI50 (NCI-H460): > 100 µM (inactive)
GI50 (OVCAR-8): > 100 µM (inactive)
GI50 (CAKI-1): > 100 µM (inactive)
GI50 (KM-20L2): > 100 µM (inactive)
GI50 (LOX IMVI): > 100 µM (inactive)
GI50 (COLO 205): > 100 µM (inactive)
GI50 (A549): > 100 µM (inactive)
GI50 (Malme-3M): > 100 µM (inactive)
GI50 (DLD-1): > 100 µM (inactive)
GI50 (SR): > 100 µM (inactive)
GI50 (KM12): > 100 µM (inactive)
GI50 (CCRF-CEM): > 100 µM (inactive)
GI50 (LXFL 529): > 100 µM (inactive)
GI50 (A498): > 100 µM (inactive)
GI50 (U-251): > 100 µM (inactive)
GI50 (XF498): > 100 µM (inactive)
GI50 (SK-OV-3): > 100 µM (inactive)
GI50 (SK-MEL-2): > 100 µM (inactive)
GI50 (HCC 2998): > 100 µM (inactive)
GI50 (786-0): > 100 µM (inactive)
GI50 (ACHN): > 100 µM (inactive)
GI50 (HT-29): > 100 µM (inactive)
GI50 (HOP-92): > 100 µM (inactive)
GI50 (SNB-19): > 100 µM (inactive)
GI50 (SK-MEL-28): > 100 µM (inactive)
GI50 (UACC-257): > 100 µM (inactive)
GI50 (RXF 393): > 100 µM (inactive)
GI50 (SN12C): > 100 µM (inactive)
GI50 (DMS-114): > 100 µM (inactive)
GI50 (NCI-H23): > 100 µM (inactive)

COc1cc(CC2c3cc(OC)c(OC)cc3CCN2C)c(C(=O)O)cc1OC (stereo not drawn)
GI50 (OVCAR-3): > 100 µM (inactive)
GI50 (TK-10): > 100 µM (inactive)
GI50 (OVCAR-5): > 100 µM (inactive)
GI50 (SW-620): > 100 µM (inactive)
GI50 (SK-MEL-5): > 100 µM (inactive)
GI50 (SF-268): > 100 µM (inactive)
GI50 (RPMI-8226): > 100 µM (inactive)
GI50 (M14): > 100 µM (inactive)
GI50 (UACC-62): > 100 µM (inactive)
GI50 (HCT-116): > 100 µM (inactive)
GI50 (NCI-H522): > 100 µM (inactive)
GI50 (NCI-H226): > 100 µM (inactive)
GI50 (HOP-18): > 100 µM (inactive)
GI50 (SNB-75): > 100 µM (inactive)
GI50 (EKVX): > 100 µM (inactive)
GI50 (MOLT-4): > 100 µM (inactive)
GI50 (K562): > 100 µM (inactive)
GI50 (UO-31): > 100 µM (inactive)
GI50 (SF-295): > 100 µM (inactive)
GI50 (HOP-62): > 100 µM (inactive)
GI50 (SF-539): > 100 µM (inactive)
GI50 (DMS-273): > 100 µM (inactive)
GI50 (M19-MEL): > 100 µM (inactive)
GI50 (SNB-78): > 100 µM (inactive)
GI50 (HL-60): > 100 µM (inactive)
GI50 (OVCAR-8): > 100 µM (inactive)
GI50 (KM-20L2): > 100 µM (inactive)
GI50 (LOX IMVI): > 100 µM (inactive)
GI50 (COLO 205): > 100 µM (inactive)
GI50 (A549): > 100 µM (inactive)
GI50 (Malme-3M): > 100 µM (inactive)
GI50 (DLD-1): > 100 µM (inactive)
GI50 (SR): > 100 µM (inactive)
GI50 (KM12): > 100 µM (inactive)
GI50 (CCRF-CEM): > 100 µM (inactive)
GI50 (LXFL 529): > 100 µM (inactive)
GI50 (A498): > 100 µM (inactive)
GI50 (U-251): > 100 µM (inactive)
GI50 (XF498): > 100 µM (inactive)
GI50 (SK-OV-3): > 100 µM (inactive)
GI50 (SK-MEL-2): > 100 µM (inactive)
GI50 (HCC 2998): > 100 µM (inactive)
GI50 (786-0): > 100 µM (inactive)
GI50 (ACHN): > 100 µM (inactive)
GI50 (HT-29): > 100 µM (inactive)
GI50 (HOP-92): > 100 µM (inactive)
GI50 (SNB-19): > 100 µM (inactive)
GI50 (SK-MEL-28): > 100 µM (inactive)
GI50 (UACC-257): > 100 µM (inactive)
GI50 (RXF 393): > 100 µM (inactive)
GI50 (SN12C): > 100 µM (inactive)
GI50 (DMS-114): > 100 µM (inactive)
GI50 (NCI-H23): > 100 µM (inactive)

COc1ccc2c(=O)c([Se]c3coc4cc(OC)ccc4c3=O)coc2c1
GI50 (OVCAR-3): > 100 µM (inactive)
GI50 (TK-10): > 100 µM (inactive)
GI50 (OVCAR-5): > 100 µM (inactive)
GI50 (SW-620): > 100 µM (inactive)
GI50 (SK-MEL-5): > 100 µM (inactive)
GI50 (SF-268): > 100 µM (inactive)
GI50 (RPMI-8226): > 100 µM (inactive)
GI50 (M14): 18.3 µM (inactive)
GI50 (UACC-62): > 100 µM (inactive)
GI50 (HCT-116): 19.8 µM (inactive)
GI50 (NCI-H522): > 100 µM (inactive)
GI50 (NCI-H226): 52 µM (inactive)
GI50 (IGROV-1): 34.4 µM (inactive)
GI50 (HOP-18): > 100 µM (inactive)
GI50 (OVCAR-4): 44.6 µM (inactive)
GI50 (HCT-15): 50.9 µM
GI50 (SNB-75): 20.8 µM (inactive)
GI50 (EKVX): 46.8 µM (inactive)
GI50 (MOLT-4): 51.8 µM (inactive)
GI50 (K562): > 100 µM (inactive)
GI50 (UO-31): 57.4 µM (inactive)
GI50 (SF-295): 24.7 µM (inactive)
GI50 (HOP-62): > 100 µM (inactive)
GI50 (SF-539): 69 µM (inactive)
GI50 (DMS-273): 53.2 µM (inactive)
GI50 (M19-MEL): 28.3 µM (inactive)
GI50 (SNB-78): 22.7 µM (inactive)
GI50 (HL-60): 40.4 µM (inactive)
GI50 (NCI-H460): 18.7 µM (inactive)
GI50 (OVCAR-8): 41.7 µM (inactive)
GI50 (CAKI-1): > 100 µM (inactive)
GI50 (KM-20L2): > 100 µM (inactive)
GI50 (LOX IMVI): > 100 µM (inactive)
GI50 (COLO 205): > 100 µM (inactive)
GI50 (A549): 32.6 µM (inactive)
GI50 (Malme-3M): 34.3 µM (inactive)
GI50 (DLD-1): 36.6 µM (inactive)
GI50 (SR): 44.1 µM (inactive)
GI50 (KM12): 41.1 µM (inactive)
GI50 (CCRF-CEM): 46.7 µM (inactive)
GI50 (LXFL 529): 32.5 µM (inactive)
GI50 (A498): 57.3 µM (inactive)
GI50 (U-251): 42.8 µM (inactive)
GI50 (XF498): > 100 µM (inactive)
GI50 (SK-OV-3): > 100 µM (inactive)
GI50 (SK-MEL-2): > 100 µM (inactive)
GI50 (HCC 2998): > 100 µM (inactive)
GI50 (786-0): 44.5 µM (inactive)
GI50 (ACHN): 72.1 µM (inactive)
GI50 (HT-29): > 100 µM (inactive)
GI50 (HOP-92): > 100 µM (inactive)
GI50 (SNB-19): > 100 µM (inactive)
GI50 (SK-MEL-28): 52.1 µM (inactive)
GI50 (UACC-257): > 100 µM (inactive)
GI50 (RXF 393): 48.6 µM (inactive)
GI50 (SN12C): 54.5 µM (inactive)
GI50 (DMS-114): 17.4 µM (inactive)
GI50 (NCI-H23): 34.9 µM (inactive)
